This note sets out measurements from PMC8472993, “A Novel Glutathione S-Transferase Gtt2 Class (VpGSTT2) Is Found in the Genome of the AHPND/EMS Vibrio parahaemolyticus Shrimp Pathogen” (Toxins, 2021).

One assay concerns the target T1, VpGSTT2 (Vibrio parahaemolyticus, UniProt Q87HB4).
T1 construct: gene VPA1051; Full coding region, synthetic E. coli-optimised gene in pET11a; C-terminal PreScission site and 6xHis tag (tag removal described); E. coli BL21(DE3) Gold
T1 sequence (Q87HB4 1-204): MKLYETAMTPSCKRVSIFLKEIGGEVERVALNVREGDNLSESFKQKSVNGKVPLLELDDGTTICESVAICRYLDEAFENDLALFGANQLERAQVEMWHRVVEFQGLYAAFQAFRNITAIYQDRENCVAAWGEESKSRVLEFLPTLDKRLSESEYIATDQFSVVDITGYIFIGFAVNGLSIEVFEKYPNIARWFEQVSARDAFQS
Nature of the assay: spectrophotometric CDNB conjugation at […] nm, initial rates. The format is biochemical. The note with it: read-out: CDNB / Km; CDNB 0.3-2 mM, GSH 0.5 mM fixed; phosphate buffer (0.1 M NaH2PO4 pH 6.5), room temperature.

For assay [1], the target named is Glutathione S-transferase class Gtt2 from Vibrio parahaemolyticus (VpGSTT2) (Vibrio parahaemolyticus (strain FIM-S1708+)). Kind of assay: SEC; Superdex 75 HR 10/300 GL on an Äkta Pure, calibrated with molecular-weight standards (conalbumin, ovalbumin, carbonic anhydrase, ribonuclease A, aprotinin); VpGSTT2 eluted at 10.8 mL, corresponding to 48.2 kDa; protein dialysed against Tris-HCl, 150 mM NaCl, pH 7.2. On the technique in general: In gel filtration, larger molecules generally elute earlier.

For the compound `O=[N+]([O-])c1ccc(Cl)c([N+](=O)[O-])c1` [CDNB, 1-chloro-2,4-dinitrobenzene], the Km on VpGSTT2 turned out to be 1 mM.
What is called stoichiometry N is the number of molecules, sites or subunits per partner or assembly. Compound “Glutathione S-transferase class Gtt2 from Vibrio parahaemolyticus (VpGSTT2) (enzyme)” displayed a stoichiometry N in assay [1] of 2.
